Measurements from patent US20230257372A1 (CHONG KUN DANG PHARMACEUTICAL CORP., priority 2020, published 2023).

Legend:
human recombinant HDAC1 = target: T1, human recombinant HDAC1 (Homo sapiens, UniProt Q13547); assay: HDAC1 enzyme activity inhibition (HDAC Fluorimetric Drug Discovery Kit); format: biochemical; conditions: human recombinant HDAC1, Fluor de Lys substrate, 30° C. 60 minutes; read-out: HDAC1
T1 construct: purchased Enzo Life Science, Inc. BML-SE456
In short: (§1)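 Fluorescence from a Fluor de Lys developer step (30 minutes) reports residual deacetylation after a 60-minute, 30° C reaction of […] enzyme with 10 μM substrate and 5-fold compound dilutions.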

human recombinant HDAC6 = target: T2, human recombinant HDAC6 (Homo sapiens, UniProt Q9UBN7); assay: HDAC6 enzyme activity inhibition (HDAC Fluorimetric Drug Discovery Kit); format: biochemical; conditions: for HDAC6 selectivity (fold): HDAC6 over HDAC1; for IC50: human recombinant HDAC6, same protocol as HDAC1
T2 construct: purchased Calbiochem Inc. 382180
T2 sequence (Q9UBN7 1-1215): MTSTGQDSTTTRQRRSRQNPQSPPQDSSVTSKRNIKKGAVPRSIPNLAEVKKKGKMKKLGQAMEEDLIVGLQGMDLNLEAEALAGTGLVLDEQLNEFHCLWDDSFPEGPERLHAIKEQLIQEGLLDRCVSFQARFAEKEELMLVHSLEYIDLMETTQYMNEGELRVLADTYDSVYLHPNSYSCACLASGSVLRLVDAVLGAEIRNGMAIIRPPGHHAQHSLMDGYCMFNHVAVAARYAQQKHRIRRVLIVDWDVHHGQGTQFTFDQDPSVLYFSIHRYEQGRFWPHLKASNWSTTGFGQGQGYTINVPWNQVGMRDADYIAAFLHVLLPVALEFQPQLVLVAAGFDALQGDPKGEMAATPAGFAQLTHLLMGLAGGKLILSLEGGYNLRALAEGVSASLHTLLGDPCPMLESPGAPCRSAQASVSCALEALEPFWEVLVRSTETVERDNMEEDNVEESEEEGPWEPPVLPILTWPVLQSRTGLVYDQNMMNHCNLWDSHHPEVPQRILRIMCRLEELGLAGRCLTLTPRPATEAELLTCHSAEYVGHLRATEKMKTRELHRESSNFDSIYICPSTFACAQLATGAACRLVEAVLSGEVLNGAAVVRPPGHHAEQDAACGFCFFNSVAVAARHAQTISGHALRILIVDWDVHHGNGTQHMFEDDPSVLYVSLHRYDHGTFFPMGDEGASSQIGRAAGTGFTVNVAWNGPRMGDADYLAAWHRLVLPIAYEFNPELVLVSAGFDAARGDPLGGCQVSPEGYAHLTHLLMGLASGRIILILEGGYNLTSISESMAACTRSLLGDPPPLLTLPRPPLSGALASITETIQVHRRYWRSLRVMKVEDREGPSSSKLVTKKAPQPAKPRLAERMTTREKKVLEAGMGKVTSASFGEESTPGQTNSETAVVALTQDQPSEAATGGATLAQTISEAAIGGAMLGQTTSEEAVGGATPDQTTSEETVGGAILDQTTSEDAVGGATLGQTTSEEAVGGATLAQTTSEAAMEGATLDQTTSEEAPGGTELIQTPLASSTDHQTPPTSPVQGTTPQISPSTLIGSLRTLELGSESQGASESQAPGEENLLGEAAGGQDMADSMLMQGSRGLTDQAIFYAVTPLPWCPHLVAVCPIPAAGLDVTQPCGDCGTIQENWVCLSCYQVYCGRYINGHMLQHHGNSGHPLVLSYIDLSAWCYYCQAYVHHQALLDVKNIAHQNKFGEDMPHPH
In short: as §1

T1 sequence (Q13547 whole entry): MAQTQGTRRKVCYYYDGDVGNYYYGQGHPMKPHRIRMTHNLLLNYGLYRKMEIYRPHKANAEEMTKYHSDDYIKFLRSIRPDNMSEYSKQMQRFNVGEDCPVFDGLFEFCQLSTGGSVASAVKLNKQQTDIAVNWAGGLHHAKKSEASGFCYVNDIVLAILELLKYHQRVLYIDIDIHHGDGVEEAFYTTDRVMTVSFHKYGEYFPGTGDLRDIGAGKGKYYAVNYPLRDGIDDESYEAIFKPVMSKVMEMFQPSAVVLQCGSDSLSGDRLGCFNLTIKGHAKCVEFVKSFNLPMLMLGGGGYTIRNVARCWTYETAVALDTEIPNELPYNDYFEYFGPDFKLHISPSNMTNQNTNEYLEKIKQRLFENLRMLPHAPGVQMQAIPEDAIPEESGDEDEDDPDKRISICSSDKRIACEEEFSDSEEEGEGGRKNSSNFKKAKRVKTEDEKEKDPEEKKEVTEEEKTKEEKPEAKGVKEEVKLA

| SMILES | IC50 (human recombinant HDAC1) [nM] | HDAC6 selectivity (fold) (human recombinant HDAC6) | IC50 (human recombinant HDAC6) [nM] |
| --- | --- | --- | --- |
| CC(C)N1Cc2ccc(-c3cn(Cc4ccc(-c5nnc(C(F)F)o5)cn4)nn3)cc2C1 [Compound 4541, 2-(difluoromethyl)-5-(6-((4-(2-isopropylisoindolin-5-yl)-1H-1,2,3-triazol-1-yl)methyl)pyridin-3-yl)-1,3,4-oxadiazole] | > 50000 | 1470 | 34 |
| FC(F)c1nnc(-c2ccc(Cn3cc(-c4ccc5c(c4)CN(C4CCC4)C5)nn3)nc2)o1 [Compound 4542, 2-(6-((4-(2-cyclobutylisoindolin-5-yl)-1H-1,2,3-triazol-1-yl)methyl)pyridin-3-yl)-5-(difluoromethyl)-1,3,4-oxadiazole] | > 50000 | 1336 | 37.4 |
| FC(F)c1nnc(-c2ccc(Cn3cc(-c4ccc5c(c4)CN(C4COC4)C5)nn3)nc2)o1 [Compound 4543, 2-(difluoromethyl)-5-(6-((4-(2-(oxetan-3-yl)isoindolin-5-yl)-1H-1,2,3-triazol-1-yl)methyl)pyridin-3-yl)-1,3,4-oxadiazole] | > 50000 | 1326 | 37.7 |
| FC(F)c1nnc(-c2ccc(Cn3cc(-c4ccc(CN5CCC5)cc4)nn3)cc2)o1 [Compound 4548, 2-(4-((4-(4-(azetidin-1-ylmethyl)phenyl)-1H-1,2,3-triazol-1-yl)methyl)phenyl)-5-(difluoromethyl)-1,3,4-oxadiazole] | > 50000 | 4545 | 13.1 |
| FC1CN(Cc2ccc(-c3cn(Cc4ccc(-c5nnc(C(F)F)o5)cc4)nn3)cc2)C1 [Compound 4549, 2-(difluoromethyl)-5-(4-((4-(4-((3-fluoroazetidin-1-yl)methyl)phenyl)-1H-1,2,3-triazol-1-yl)methyl)phenyl)-1,3,4-oxadiazole] | > 50000 | 1213 | 41.2 |
| FC(F)c1nnc(-c2ccc(Cn3cc(-c4ccc(CN5CCCC5)cc4)nn3)cc2)o1 [Compound 4550, 2-(difluoromethyl)-5-(4-((4-(4-(pyrrolidin-1-ylmethyl)phenyl)-1H-1,2,3-triazol-1-yl)methyl)phenyl)-1,3,4-oxadiazole] | > 50000 | 2762 | 18.1 |
| FC(F)c1nnc(-c2ccc(Cn3cc(-c4ccc(CN5CC6(COC6)C5)cc4)nn3)cc2)o1 [Compound 4551, 6-(4-(1-(4-(5-(difluoromethyl)-1,3,4-oxadiazol-2-yl)benzyl)-1H-1,2,3-triazol-4-yl)benzyl)-2-oxa-6-azaspiro[3.3]heptane] | > 50000 | 4761 | 10.5 |
| CN1CCN(Cc2ccc(-c3cn(Cc4ccc(-c5nnc(C(F)F)o5)cc4)nn3)cc2)CC1 [Compound 4552, 2-(difluoromethyl)-5-(4-((4-(4-((4-methylpiperazin-1-yl)methyl)phenyl)-1H-1,2,3-triazol-1-yl)methyl)phenyl)-1,3,4-oxadiazole] | > 50000 | 1184 | 42.2 |
| CCN1CCN(Cc2ccc(-c3cn(Cc4ccc(-c5nnc(C(F)F)o5)cc4)nn3)cc2)CC1 [Compound 4553, 2-(difluoromethyl)-5-(4-((4-(4-((4-ethylpiperazin-1-yl)methyl)phenyl)-1H-1,2,3-triazol-1-yl)methyl)phenyl)-1,3,4-oxadiazole] | > 50000 | 986 | 50.7 |
| CN(C)C1CCN(Cc2ccc(-c3cn(Cc4ccc(-c5nnc(C(F)F)o5)cc4)nn3)cc2)CC1 [Compound 4554, 1-(4-(1-(4-(5-(difluoromethyl)-1,3,4-oxadiazol-2-yl)benzyl)-1H-1,2,3-triazol-4-yl)benzyl)-N,N-dimethylpiperidin-4-amine] | > 50000 | 773 | 64.6 |
| FC(F)c1nnc(-c2ccc(Cn3cc(-c4ccc(CNC5CCC5)cc4)nn3)cc2)o1 [Compound 4555, N-(4-(1-(4-(5-(difluoromethyl)-1,3,4-oxadiazol-2-yl)benzyl)-1H-1,2,3-triazol-4-yl)benzyl)cyclobutanamine] | > 50000 | 2100 | 23.8 |
| FC(F)c1nnc(-c2ccc(Cn3cc(-c4ccc(CNC5COC5)cc4)nn3)cc2)o1 [Compound 4556, N-(4-(1-(4-(5-(difluoromethyl)-1,3,4-oxadiazol-2-yl)benzyl)-1H-1,2,3-triazol-4-yl)benzyl)oxetan-3-amine] | > 50000 | 682 | 73.3 |
| CN1CC(NCc2ccc(-c3cn(Cc4ccc(-c5nnc(C(F)F)o5)cc4)nn3)cc2)C1 [Compound 4557, N-(4-(1-(4-(5-(difluoromethyl)-1,3,4-oxadiazol-2-yl)benzyl)-1H-1,2,3-triazol-4-yl)benzyl)-1-methylazetidin-3-amine] | > 50000 | 801 | 62.4 |
| FC(F)c1nnc(-c2ccc(Cn3cc(-c4ccc(CN5CCC5)cc4)nn3)nc2)o1 [Compound 4558, 2-(6-((4-(4-(azetidin-1-ylmethyl)phenyl)-1H-1,2,3-triazol-1-yl)methyl)pyridin-3-yl)-5-(difluoromethyl)-1,3,4-oxadiazole] | > 50000 | 5882 | 8.5 |
| FC1CN(Cc2ccc(-c3cn(Cc4ccc(-c5nnc(C(F)F)o5)cn4)nn3)cc2)C1 [Compound 4559, 2-(difluoromethyl)-5-(6-((4-(4-((3-fluoroazetidin-1-yl)methyl)phenyl)-1H-1,2,3-triazol-1-yl)methyl)pyridin-3-yl)-1,3,4-oxadiazole] | > 50000 | 2347 | 21.3 |
| FC(F)c1nnc(-c2ccc(Cn3cc(-c4ccc(CN5CCCC5)cc4)nn3)nc2)o1 [Compound 4560, 2-(difluoromethyl)-5-(6-((4-(4-(pyrrolidin-1-ylmethyl)phenyl)-1H-1,2,3-triazol-1-yl)methyl)pyridin-3-yl)-1,3,4-oxadiazole] | > 50000 | 4672 | 10.7 |
| FC(F)c1nnc(-c2ccc(Cn3cc(-c4ccc(CN5CC6(COC6)C5)cc4)nn3)nc2)o1 [Compound 4561, 6-(4-(1-((5-(5-(difluoromethyl)-1,3,4-oxadiazol-2-yl)pyridin-2-yl)methyl)-1H-1,2,3-triazol-4-yl)benzyl)-2-oxa-6-azaspiro[3.3]heptane] | > 50000 | 3571 | 14 |
| CN1CCN(Cc2ccc(-c3cn(Cc4ccc(-c5nnc(C(F)F)o5)cn4)nn3)cc2)CC1 [Compound 4562, 2-(difluoromethyl)-5-(6-((4-(4-((4-methylpiperazin-1-yl)methyl)phenyl)-1H-1,2,3-triazol-1-yl)methyl)pyridin-3-yl)-1,3,4-oxadiazole] | > 50000 | 2083 | 24 |
| CCN1CCN(Cc2ccc(-c3cn(Cc4ccc(-c5nnc(C(F)F)o5)cn4)nn3)cc2)CC1 [Compound 4563, 2-(difluoromethyl)-5-(6-((4-(4-((4-ethylpiperazin-1-yl)methyl)phenyl)-1H-1,2,3-triazol-1-yl)methyl)pyridin-3-yl)-1,3,4-oxadiazole] | > 50000 | 2222 | 22.5 |
